Measurements reported in patent US20050058745A1, “Use of Labiatae herb preparations for extending the flavor shelf life of malt beverages” (priority 2003, published 2005).

Tests used:
[1] = Trained panel flavor evaluation, highly hopped aromatic beer, forced aging; settings: 20 ppm
Method: Separate solutions containing 2% pure rosmarinic acid or pure carnosic acid were prepared by weighing out 500 mg of each compound into separate volumetric flasks and diluting to 25 mL with 100% EtOH. The beer used in this study was the freshest material available, being coded Nov 03 […]. It was purchased at a local market. Bottle additions were done as in Example 1. The following samples were prepared: The bottles were placed in a heated room at 40±1° C. in the dark for varying amounts of time. After the allotted aging time, the bottles of beer were transferred to a dark refrigerator and stored at approximately 2to 4° C. until they were analyzed (always within 48 hours). Additional bottles from the same code were kept unopened in 2° to 4° C. storage. These unopened samples from the same beer code were labeled “Fresh Control” used to provide fresh samples for the trained panel. At the appropriate times, a trained 8-member panel evaluated the beers. […] Three beers were evaluated at each session-Fresh Control, Aged No Addition, and Aged Beer with one of the Labiatae treatments. The overall preference rank, the character and intensity of the aroma, the levels of paper/cardboard aroma and flavor, sour or off flavors, hang and astringency and bitterness quality and intensity were evaluated.

[2] = Phenylacetaldehyde in headspace of aged beer; type: physicochemical; settings: for Phenylacetaldehyde in the headspace of aged beer: 20 ppm (RA + CA: 10 ppm each); for effect on formation of phenylacetaldehyde and 3-methylbutanal: aged beer, 40° C.
Method: (§1) The highly hopped beer from example 2 was treated with solutions of carnosic acid in ethanol, rosmarinic acid in ethanol or a mixture of carnosic acid and rosmarinic acid in ethanol as done previously. […] The bottles were fobbed to exclude air and crowned. • 3. “20 ppm CA+air” in which bottles were opened and 20 ppm CA added as above. These bottles received two puffs of air in the remaining headspace from a 25 mL bulb. They were crowned without fobbing • 4. “20 ppm RA” in which bottles were opened and 20 ppm rosmarinic acid added from a 2% solution. The bottles were fobbed and crowned. • 5. “20 ppm RA+air” which was done as in No. 4, with 20 ppm RA added. These bottles received the two puffs of air and were crowned without fobbing. • 6. “10 ppm RA+10 ppm CA” in which bottles were opened and 10 ppm each of carnosic and rosmarinic acids were added from pure solutions (178 μL of 2% solution per 12 oz bottle). Bottles were fobbed and crowned. • 7. “10 ppm RA+10 ppm CA+air” in which 10 ppm each of RA and CA was added. This treatment received two puffs of air and was not fobbed before closing. • 8. “Control+air” in which bottles were opened, given two puffs of air and crowned without fobbing. • 9. “Control” in which bottles were opened, fobbed and crowned. Treatments 2 through 9 were stored in a 40° C. hot room. At various times, bottles were opened and samples analyzed for phenylacetaldehyde and 3-methylbutanal by the method of “[…], et al. The results are shown in Table 19.

[3] = 3-Methylbutanal in headspace of aged beer; type: physicochemical; settings: 20 ppm (RA + CA: 10 ppm each)
Method: as §1

[4] = Blind sensory triangle panels, model citrus beverage
Method: Carbon filtered water was carbonated to 3.5 to 4 times the volume of beer. 59.2 ml of syrup was added to each 355 ml bottle. Each bottle was individually dosed with the treatments listed in Table 22 by adding 1.775 mL of a 1% (weight/volume) solution of carnosol or rosmarinic acid in ethanol to give 50 ppm of each. The bottle was filled to approximately 355 ml with carbonated water before it was capped and inverted. Fresh samples were stored in the refrigerator (0° C.). Heat exposed samples were aged in the oven (32° C.) for seven days. […] Each panel was balanced, with half of the panel given control as the odd sample, the other half of the panel given a treated sample as the odd sample. Panelists were allowed to drink water during the panel.

[5] = Aged Control vs. Aged treated (32° C., seven days), 50 ppm (CA + RA: 50 ppm each)
[6] = Fresh Control vs. Fresh treated, 50 ppm

Compound	panelists' preference for treated sample over Aged No Addition sample ([1]; 1 week 40° C.)	Phenylacetaldehyde in the headspace of aged beer ([2]; Day 0, 40° C., + air) [Parts per million]	Phenylacetaldehyde in the headspace of aged beer ([2]; Day 0, 40° C., no air) [Parts per million]	Phenylacetaldehyde in the headspace of aged beer ([2]; Day 3, 40° C., + air) [Parts per million]	Phenylacetaldehyde in the headspace of aged beer ([2]; Day 3, 40° C., no air) [Parts per million]	Phenylacetaldehyde in the headspace of aged beer ([2]; Day 7, 40° C., + air) [Parts per million]	Phenylacetaldehyde in the headspace of aged beer ([2]; Day 7, 40° C., no air) [Parts per million]	Phenylacetaldehyde in the headspace of aged beer ([2]; Day 14, 40° C., + air) [Parts per million]	Phenylacetaldehyde in the headspace of aged beer ([2]; Day 14, 40° C., no air) [Parts per million]	Phenylacetaldehyde in the headspace of aged beer ([2]; Day 21, 40° C., + air) [Parts per million]	Phenylacetaldehyde in the headspace of aged beer ([2]; Day 21, 40° C., no air) [Parts per million]	effect on formation of phenylacetaldehyde and 3-methylbutanal [2]	3-Methylbutanal in the headspace of aged beer ([3]; Day 0, 40° C., + air) [Parts per million]	3-Methylbutanal in the headspace of aged beer ([3]; Day 0, 40° C., no air) [Parts per million]	3-Methylbutanal in the headspace of aged beer ([3]; Day 3, 40° C., + air) [Parts per million]	3-Methylbutanal in the headspace of aged beer ([3]; Day 3, 40° C., no air) [Parts per million]	3-Methylbutanal in the headspace of aged beer ([3]; Day 7, 40° C., + air) [Parts per million]	3-Methylbutanal in the headspace of aged beer ([3]; Day 7, 40° C., no air) [Parts per million]	3-Methylbutanal in the headspace of aged beer ([3]; Day 14, 40° C., + air) [Parts per million]	3-Methylbutanal in the headspace of aged beer ([3]; Day 14, 40° C., no air) [Parts per million]	further results
O=C(/C=C/c1ccc(O)c(O)c1)O[C@H](Cc1ccc(O)c(O)c1)C(=O)O [RA, rosmarinic acid]	7 of 8 panelists preferred	50.16	43.6	48.83	45.83	66.68	46.01	55.65	52.71	68.89	52.14	dramatic effect in decreasing the formation of these off-flavor compounds	3.13	4.12	4.14	3.05	3.95	2.73	4.28	3.03	panelists' preference for treated sample over Aged No Addition sample ([1]; 3 days 40° C.): 6 of 8 panelists preferred; 3-Methylbutanal in the headspace of aged beer ([3]; Day 21, 40° C., + air): 5.06 Parts per million; 3-Methylbutanal in the headspace of aged beer ([3]; Day 21, 40° C., no air): 4.85 Parts per million; Correct Panelists/Total Panelists (triangle test) [4, 5]: 12/20; Correct Panelists/Total Panelists (triangle test) ([4]; Fresh Control vs. Aged treated (32° C., seven days), 50 ppm (CA + RA: 50 ppm each)): 12/21; Correct Panelists/Total Panelists (triangle test) [4, 6]: 10/22; difference from untreated samples detected by triangle panel ([4]; aged for 7 days): significant difference with a 95% confidence level
CC(C)c1cc2c(c(O)c1O)[C@@]1(C(=O)O)CCCC(C)(C)[C@@H]1CC2 [CA, carnosic acid]	8 of 8 panelists preferred	30.49	32.76	42.05	46.34	63.82	57.39	25.74	24.75	88.86	52.94	dramatic effect in decreasing the formation of these off-flavor compounds	3.44	3.24	3.85	3.13	3.68	2.98	3.45	1.82	3-Methylbutanal in the headspace of aged beer ([3]; Day 21, 40° C., + air): 5.09 Parts per million; 3-Methylbutanal in the headspace of aged beer ([3]; Day 21, 40° C., no air): 4.66 Parts per million; Correct Panelists/Total Panelists (triangle test) [4, 5]: 9/21; Correct Panelists/Total Panelists (triangle test) [4, 6]: 9/20
